Where a name gives a salt, the structure may show the parent alone. Read-outs that look alike come from different tables or passages of the source.
What was measured:
Assay type in all cases: cell-based, human
[1] = test system: WaGa; assay: Cell Titer Glo dose-response study; conditions: read-out: EC50 concentrations for MCC cell lines, WaGa
Text: (§1) Seven Merkel cell carcinoma cell lines: MKL-1, MKL-2, MS-1, UISO, MCC13, MCC26 and WaGa (kind gift of Jurgen Becker (Houben et al., Merkel cell polyomavirus-infected Merkel cell carcinoma cells require expression of viral T antigens. J Virol 84, 7064 (July, 2010); Ronan et al., Merkel cell carcinoma: in vitro and in vivo characteristics of a new cell line. J Am Acad Dermatol 29, 715 (November, 1993); Rosen et al., Establishment and characterization of a neuroendocrine skin carcinoma cell line. Lab Invest 56, 302 (March, 1987)); NCI-H69 small cell lung cancer cell line (ATCC); 293 human embryonic kidney cells (ATCC); U2OS osteosarcoma cell line (kind gift of Ole Gjoerup); BJhTERT immortalized foreskin fibroblast cell line (kind gift of Ole Gjoerup); and BJ primary foreskin fibroblasts (ATCC) were used to screen and evaluate the small molecules examined in this study (Houben et al., J Virol 84, 7064 (July, 2010); Ronan et al., J Am Acad Dermatol 29, 715 (November, 1993); Rosen et al., Lab Invest 56, 302 (March, 1987)). The Merkel cell lines and NCI-H69 were grown in RPMI 1640 supplemented with 10% fetal calf serum, penicillin and streptomycin at 37° C. in humidified air containing 5% CO2. The remaining cell lines were grown in DMEM supplemented with 10% fetal calf serum.
(§2) For EC50 measurements, dose-response curves were established for 17 drugs obtained individually in bulk stocks. Iodoacetamide (I1149), sanguarine chloride (S5890), NSC95397 (N1786), chelerythrine chloride (C2932), calmidazolium chloride (C3930), tetraethylthiuram disulfide (T1132), bay 11-7085 (B5681), quinacrine dihydro chloride (Q3251), ellipticine (E3380), amsacrine hydrochloride (A9809) and nutlin-3 (N6287) were purchased from Sigma Aldrich, USA.
(§3) Compounds that met the selection criteria <10% cell survival were purchased or obtained in bulk from NCI/NIH Developmental Therapeutics Program. Serial drug dilutions from 10^−4 M to 10^−9 M were used on MCC and non-MCC cell lines. Cells were seeded into 384-well plates at 6000 cells in 50 μl of medium per well. After 24 hours, 25 μl of 3× drugs were added at increasing concentration to each well. Cell viability was then measured using Cell Titer Glo (Promega) kit following manufacturer's instructions as described previously. Each drug concentration was tested in triplicate for each cell line and experiments were repeated twice. EC50 doses for the drugs were calculated using a four parameter logistic equation (GraphPad Prism).

[2] = test system: MS-1; assay: Cell Titer Glo dose-response study
Text: as §1, §2, §3

[3] = test system: MKL-2; assay: Cell Titer Glo dose-response study; conditions: read-out: EC50 concentrations for MCC cell lines, MKL-2
Text: as §1, §2, §3

[4] = test system: UISO; assay: Cell Titer Glo dose-response study; conditions: read-out: EC50 concentrations for MCC cell lines, UISO
Text: as §1, §2, §3

[5] = test system: MKL-1; assay: Cell Titer Glo dose-response study
Text: as §1, §2, §3

[6] = test system: MKL-1 cells; assay: MKL-1 cytotoxicity screen (Cell Titer Glo); conditions: screened at 10^-5 M; 48 hours; cut-off <10% cell survival
Text: A total of 1,360 compounds were used in the initial screening survey: 1,280 compounds from LOPAC1280 library (Sigma Aldrich, accessed through University of Pittsburgh Drug Discovery Institute), 89 compounds from NCI's Approved Oncology Drug Set II (from The NCI/DTP Open Chemical Repository, http://dtp.cancer.gov), 6 LT ATPase inhibitors (MAL2-11B, MAL3-101, MAL2-51, DMT3084, bithionol and hexachlorophene (Wright et al., Inhibition of Simian Virus 40 replication by targeting the molecular chaperone function and ATPase activity of T antigen. Virus Res 141, 71 (April, 2009); Seguin et al., High-Throughput Screening Identifies a Bisphenol Inhibitor of SV40 Large T Antigen ATPase Activity. […] NCI Approved Oncology Drug Set II, SV40 LT ATPase inhibitors and MDM2 inhibitors were reconstituted as recommended by supplier. […] Reconstituted compounds were diluted in cell culture media to obtain a 100× stock concentration prior to addition to cells. Doxorubicin (positive control) was obtained from Sigma-Aldrich and DMSO (negative control) was obtained from Fisher Bioreagents.
MKL-1 cells were seeded at a density of 6000 cells in 50 μl of medium per well (120 cells/μl) in opaque polypropylene 384-well microplates (#781080, Greiner Bio-One, Germany). Cells were incubated at 37° C. in humidified air containing 5% CO2 for 24 hours. Thereafter, 25 μl of medium containing 3× drug per well was added to the plates, which were incubated for an additional 48 hours. Cell viability was measured using Cell Titer Glo (Promega) following manufacturer's instructions.
The LOPAC1280 library was screened at a final concentration of 10 μM for each compound and the NCI library was screened at a final concentration of 1 μM for each compound.
Cell Titer Glo assays were performed in duplicate using 384 well plates, each containing 24 wells with 1% DMSO (negative control) and 32 wells with 200 μM doxorubicin (positive control). Screening results were evaluated on the basis of percentage cell survival normalized to the DMSO control (100%). Positive candidates were identified using a cut-off value of <10% cell survival.

[7] = Homo sapiens, WaGa (MCV-positive), Cell Titer Glo
[8] = Homo sapiens, MS-1 (MCV-positive), Cell Titer Glo, read-out: EC50 concentrations for MCC cell lines, MS-1
[9] = Homo sapiens, MKL-2 (MCV-positive), Cell Titer Glo
[10] = Homo sapiens, UISO (MCV-negative), Cell Titer Glo
[11] = Homo sapiens, MKL-1 (MCV-positive), Cell Titer Glo, read-out: EC50 concentrations for MCC cell lines, MKL-1
[12] = Homo sapiens, MS-1, read-out: EC50 concentrations for MCC cell lines, MS-1
[13] = Homo sapiens, MKL-1, read-out: EC50 concentrations for MCC cell lines, MKL-1
[14] = WaGa (MCV-positive), Cell Titer Glo
[15] = MS-1 (MCV-positive), Cell Titer Glo, read-out: EC50 concentrations for MCC cell lines, MS-1
[16] = MKL-2 (MCV-positive), Cell Titer Glo
[17] = UISO (MCV-negative), Cell Titer Glo
[18] = MKL-1 (MCV-positive), Cell Titer Glo, read-out: EC50 concentrations for MCC cell lines, MKL-1

Row | SMILES | EC50 [1, 7] [nM] | EC50 [2, 8] [nM] | EC50 [3, 9] [nM] | EC50 [4, 10] [nM] | EC50 [5, 11] [nM] | also measured
1 | CC[C@@]1(O)C(=O)OCc2c1cc1n(c2=O)Cc2cc3c(CN(C)C)c(O)ccc3nc2-1 [Topotecan] | 15 | 620 | 430 | 170 | 28 | –
2 | COc1cccc2c1C(=O)c1c(O)c3c(c(O)c1C2=O)C[C@@](O)(C(C)=O)C[C@@H]3O[C@H]1C[C@H](N)[C@H](O)[C@H](C)O1 [Daunorubicin] | – | – | – | – | – | EC50 ([1]; Homo sapiens): 18 nM; EC50 [2, 12]: 150 nM; EC50 ([3]; Homo sapiens): 86 nM; EC50 ([4]; Homo sapiens): 1400 nM; EC50 [5, 13]: 15 nM
3 | O=C1c2c(O)ccc(O)c2C(=O)c2c(NCCNCCO)ccc(NCCNCCO)c21 [Mitoxantrone] | 14 | 1600 | 1300 | 970 | 6 | –
4 | COc1ccc2c(c[n+](C)c3c4cc5c(cc4ccc23)OCO5)c1OC [Chelerythrine chloride] | 700 | 520 | 650 | 3700 | 600 | –
5 | Nc1nc2c(ncn2COCCO)c(=O)[nH]1 [acyclovir] | – | – | – | – | – | activity in screen (>90% inhibition of MKL-1 cell growth) [6]: not active
6 | CCC(=O)N1CCN(c2ccc(-n3c(=O)ccc4cnc5ccc(-c6cnc7ccccc7c6)cc5c43)cc2C(F)(F)F)CC1 [Torin1] | – | – | – | – | – | activity in screen (>90% inhibition of MKL-1 cell growth) [6]: not active
7 | COc1cc(NS(C)(=O)=O)ccc1Nc1c2ccccc2nc2ccccc12 [Amsacrine hydrochloride] | 250 | 7500 | 3000 | 2600 | 110 | –
8 | COc1cccc2c1C(=O)c1c(O)c3c(c(O)c1C2=O)C[C@@](O)(C(=O)CO)C[C@@H]3O[C@H]1C[C@H](N)[C@H](O)[C@H](C)O1 [Doxorubicin] | 22 | 370 | 22 | 250 | 210 | –
9 | O=C1C(SCCO)=C(SCCO)C(=O)c2ccccc21 [NSC 95397] | – | – | – | – | – | EC50 [1, 14]: 730 nM; EC50 [2, 15]: 1800 nM; EC50 [3, 16]: 1500 nM; EC50 [4, 17]: 2800 nM; EC50 [5, 18]: 1200 nM
10 | CCN(CC)CCCC(C)Nc1c2ccc(Cl)cc2nc2ccc(OC)cc12 (stereo not shown) [Quinacrine dihydrochloride] | – | – | – | – | – | EC50 ([1]; Homo sapiens): 5200 nM; EC50 [2, 12]: 4900 nM; EC50 ([3]; Homo sapiens): 4600 nM; EC50 ([4]; Homo sapiens): 7100 nM; EC50 [5, 13]: 5100 nM
11 | Cc1c2ccncc2c(C)c2c1[nH]c1ccccc12 [Ellipticine] | 3000 | 6900 | 6500 | 1100 | 3200 | –
12 | CCCCC(=O)OCC(=O)[C@]1(O)Cc2c(O)c3c(c(O)c2[C@@H](O[C@H]2C[C@H](NC(=O)C(F)(F)F)[C@H](O)[C@H](C)O2)C1)C(=O)c1c(OC)cccc1C3=O [Valrubicin] | 320 | 9900 | 2800 | 4000 | 230 | –
13 | NC(=O)CI [Iodoacetamide] | – | – | – | – | – | EC50 ([1]; Homo sapiens): 370 nM; EC50 [2, 12]: 640 nM; EC50 ([3]; Homo sapiens): 300 nM; EC50 ([4]; Homo sapiens): 2500 nM; EC50 [5, 13]: 290 nM
14 | Clc1ccc(C(c2ccc(Cl)cc2)n2cc[n+](CC(OCc3ccc(Cl)cc3Cl)c3ccc(Cl)cc3Cl)c2)cc1 (stereo not shown) [Calmidazolium chloride] | 2100 | 2100 | 1700 | 2000 | 2200 | –
15 | C[n+]1cc2c3c(ccc2c2ccc4cc5c(cc4c21)OCO5)OCO3 [Sanguinarine chloride] | – | – | – | – | – | EC50 ([1]; Homo sapiens): 2500 nM; EC50 [2, 12]: 4900 nM; EC50 ([3]; Homo sapiens): 8400 nM; EC50 ([4]; Homo sapiens): 6500 nM; EC50 [5, 13]: 5300 nM
16 | COc1cc([C@@H]2c3cc4c(cc3[C@@H](O[C@@H]3O[C@@H]5CO[C@@H](c6cccs6)O[C@H]5[C@H](O)[C@H]3O)[C@H]3COC(=O)[C@H]23)OCO4)cc(OC)c1O [Teniposide] | 26 | 3000 | 2800 | 7300 | 10 | –
17 | CCN(CC)C(=S)SSC(=S)N(CC)CC [Tetraethylthiuram disulfide] | 1100 | 6300 | 190 | 13000 | 490 | –
18 | CC(C)(C)c1ccc(S(=O)(=O)/C=C/C#N)cc1 [Bay 11-7085] | – | – | – | – | – | EC50 [1, 14]: 1200 nM; EC50 [2, 15]: 2700 nM; EC50 [3, 16]: 1700 nM; EC50 [4, 17]: 4500 nM; EC50 [5, 18]: 1400 nM
